Test results: ChEMBL document CHEMBL3792383, “C-cinnamoyl glycosides as a new class of anti-filarial agents” (Eur J Med Chem, 2016)
In brackets after ≈: the same amount, converted by molar mass. Activity calls are given as the source filed them. The rule behind the calls is not given here.

Assays:
Setaria cervi [1] = test: Antifilarial activity against microfilaria of Setaria cervi assessed as inhibition of worm viability after 24 hrs by MTT assay; assay type: functional
Setaria cervi [2] = test: Antifilarial activity against microfilaria of Setaria cervi assessed as inhibition of relative movability after 24 hrs by microscopy; assay type: functional, organism-based
[3] = Cytotoxicity against human normal kidney epithelial cells after 24 hrs by MTT assay; assay type: cell-based, Epithelial cell
[4] = Selectivity index, ratio of CC50 for human normal kidney epithelial cells to IC50 for microfilaria of Setaria cervi; assay type: functional, Epithelial cell
Wuchereria bancrofti = test: Antifilarial activity against microfilaria of Wuchereria bancrofti assessed as reduction in worm viability at 18 nM after 24 hrs by MTT assay; assay type: functional
Setaria cervi [5] = test: Induction of apoptosis in microfilaria of Setaria cervi assessed as DNA fragmentation after 24 hrs by propidium iodide staining-based inverted fluorescence microscopy; assay type: functional, organism-based
Setaria cervi [6] = test: Induction of apoptosis in microfilaria of Setaria cervi assessed as DNA fragmentation after 24 hrs by Hoechst 33342 staining-based fluorescence microscopy; assay type: functional, organism-based
Setaria cervi [7] = test: Potency index, ratio of ivermectin LC50 to compound LC50 for microfilaria of Setaria cervi by MTT assay; assay type: functional
Setaria cervi [8] = test: Induction of apoptosis in microfilaria of Setaria cervi assessed as chromatin condensation after 24 hrs by propidium iodide staining-based inverted fluorescence microscopy; assay type: functional, organism-based
Setaria cervi [9] = test: Induction of cuticular sheath damage in microfilaria of Setaria cervi after 24 hrs by scanning electron microscopy; assay type: functional, organism-based
Setaria cervi [10] = test: Induction of apoptosis in microfilaria of Setaria cervi assessed as chromatin condensation after 24 hrs by Hoechst 33342 staining-based fluorescence microscopy; assay type: functional, organism-based
[11] = Antifilarial activity against microfilaria of Wuchereria bancrofti assessed as inhibition of relative movability after 24 hrs by microscopy; assay type: functional

Compound | LC50 (Setaria cervi [1]) | IC50 (Setaria cervi [2]; Setaria cervi, 24 h) | MIC (Setaria cervi [2]; Setaria cervi, 24 h) | further results
CC(=O)OC[C@H]1O[C@@H](CC(=O)/C=C/c2ccc(Cl)cc2)[C@H](OC(C)=O)[C@@H](OC(C)=O)[C@@H]1OC(C)=O | 51.9 nM | 26.6 nM | 0.0167 µM (≈ 8.54 ng/mL) | –
CC(=O)OC[C@H]1O[C@@H](CC(=O)/C=C/c2ccc3ccccc3c2)[C@H](OC(C)=O)[C@@H](OC(C)=O)[C@@H]1OC(C)=O | > 900 nM | > 900 nM | > 0.9 µM | –
IVERMECTIN [listing 1 of 2 here] | – | – | – | IC50 (Setaria cervi [2]): 19.5 nM
COc1cc(/C=C/C(=O)C[C@@H]2O[C@H](COC(C)=O)[C@@H](OC(C)=O)[C@H](OC(C)=O)[C@H]2OC(C)=O)cc(OC)c1OC | 140 nM | 76.4 nM | 0.0602 µM (≈ 34.1 ng/mL) | –
COc1cc(/C=C/C(=O)C[C@@H]2O[C@H](COC(C)=O)[C@@H](OC(C)=O)[C@H](OC(C)=O)[C@H]2OC(C)=O)ccc1O | 500 nM | 185 nM | 0.0722 µM (≈ 37.7 ng/mL) | –
COc1ccc(/C=C/C(=O)C[C@@H]2O[C@H](COC(C)=O)[C@@H](OC(C)=O)[C@H](OC(C)=O)[C@H]2OC(C)=O)cc1OC | 274 nM | 81.4 nM | 0.0629 µM (≈ 33.7 ng/mL) | –
CC(=O)OC[C@H]1O[C@@H](CC(=O)/C=C/c2ccc([N+](=O)[O-])s2)[C@H](OC(C)=O)[C@@H](OC(C)=O)[C@@H]1OC(C)=O | 47.5 nM | 21.3 nM | 0.0106 µM (≈ 5.6 ng/mL) | –
COc1cccc(/C=C/C(=O)C[C@@H]2O[C@H](COC(C)=O)[C@@H](OC(C)=O)[C@H](OC(C)=O)[C@H]2OC(C)=O)c1 | > 900 nM | > 900 nM | > 0.9 µM | –
CC(=O)OC[C@H]1O[C@@H](CC(=O)/C=C/c2ccc(OCc3ccccc3)cc2)[C@H](OC(C)=O)[C@@H](OC(C)=O)[C@@H]1OC(C)=O | > 900 nM | 348 nM | 0.263 µM (≈ 153 ng/mL) | –
CC(=O)OC[C@H]1O[C@@H](CC(=O)/C=C/c2ccc(C)cc2)[C@H](OC(C)=O)[C@@H](OC(C)=O)[C@@H]1OC(C)=O | 42.2 nM | 13.6 nM | 0.00581 µM (≈ 2.85 ng/mL) | CC50 at 24 h [3]: 3.18 nM; Ratio CC50/IC50 [4]: 0.24
COc1ccc(/C=C/C(=O)C[C@@H]2O[C@H](COC(C)=O)[C@@H](OC(C)=O)[C@H](OC(C)=O)[C@H]2OC(C)=O)cc1 | 142 nM | 41.6 nM | 0.0207 µM (≈ 10.5 ng/mL) | –
CC(=O)OC[C@H]1O[C@@H](CC(=O)/C=C/c2ccc(Cl)c(Cl)c2)[C@H](OC(C)=O)[C@@H](OC(C)=O)[C@@H]1OC(C)=O | 13.2 nM | 6.97 nM | 0.00458 µM (≈ 2.5 ng/mL) | Activity (Wuchereria bancrofti): 81.09%; Activity (Setaria cervi [5]): Active; Activity (Setaria cervi [6]): Active; RatioLC50 (Setaria cervi [7]): 6.5; CC50 at 24 h [3]: 25.8 nM; Activity (Setaria cervi [8]): Active; Activity (Setaria cervi [9]): Active; Ratio CC50/IC50 [4]: 3.97; Activity (Setaria cervi [10]): Active; IC50 [11]: 6.77 nM; MIC [11]: 0.00458 µM (≈ 2.5 ng/mL); inhibition [11]: Dose-dependent effect
IVERMECTIN [listing 2 of 2 here] | 53.6 nM | – | – | Activity (Wuchereria bancrofti): 17.6%; MIC (Setaria cervi [2]): 0.00743 µM
CC(=O)OC[C@H]1O[C@@H](CC(=O)/C=C/c2ccc([N+](=O)[O-])cc2)[C@H](OC(C)=O)[C@@H](OC(C)=O)[C@@H]1OC(C)=O | 71.2 nM | 23.9 nM | 0.0111 µM (≈ 5.8 ng/mL) | –
CC(=O)OC[C@H]1O[C@@H](CC(=O)/C=C/c2ccccc2)[C@H](OC(C)=O)[C@@H](OC(C)=O)[C@@H]1OC(C)=O | 108 nM | 38.8 nM | 0.0206 µM (≈ 9.8 ng/mL) | –
CC(=O)OC[C@H]1O[C@@H](CC(=O)/C=C/c2cccs2)[C@H](OC(C)=O)[C@@H](OC(C)=O)[C@@H]1OC(C)=O | 257 nM | 46.9 nM | 0.0245 µM (≈ 11.8 ng/mL) | –
CC(=O)OC[C@H]1O[C@@H](CC(=O)/C=C/c2cc(Cl)cc(Cl)c2O)[C@H](OC(C)=O)[C@@H](OC(C)=O)[C@@H]1OC(C)=O | 44.4 nM | 17.7 nM | 0.00919 µM (≈ 5.16 ng/mL) | –
CC(=O)OC[C@H]1O[C@@H](CC(=O)/C=C/c2cccnc2)[C@H](OC(C)=O)[C@@H](OC(C)=O)[C@@H]1OC(C)=O | 26.7 nM | 7.64 nM | 0.00377 µM (≈ 1.8 ng/mL) | CC50 at 24 h [3]: 4.17 nM; Ratio CC50/IC50 [4]: 0.56
CC(=O)OC[C@H]1O[C@@H](CC(=O)/C=C/c2ccc(O)cc2)[C@H](OC(C)=O)[C@@H](OC(C)=O)[C@@H]1OC(C)=O | > 900 nM | > 900 nM | > 0.9 µM | –
CC(=O)OC[C@H]1O[C@@H](CC(=O)/C=C/c2ccc(OC(C)=O)cc2)[C@H](OC(C)=O)[C@@H](OC(C)=O)[C@@H]1OC(C)=O | 336 nM | 119 nM | 0.0342 µM (≈ 18.3 ng/mL) | –
CC(=O)OC[C@H]1O[C@@H](CC(=O)/C=C/c2cccc([N+](=O)[O-])c2)[C@H](OC(C)=O)[C@@H](OC(C)=O)[C@@H]1OC(C)=O | 29 nM | 11.3 nM | 0.00594 µM (≈ 3.1 ng/mL) | CC50 at 24 h [3]: 15.4 nM; Ratio CC50/IC50 [4]: 1.44
CC(=O)OC[C@H]1O[C@@H](CC(=O)/C=C/c2cccc3ccccc23)[C@H](OC(C)=O)[C@@H](OC(C)=O)[C@@H]1OC(C)=O | 19.4 nM | 13.5 nM | 0.0117 µM (≈ 6.15 ng/mL) | –
CC(=O)OC[C@H]1O[C@@H](CC(=O)/C=C/c2ccc(N(C)C)cc2)[C@H](OC(C)=O)[C@@H](OC(C)=O)[C@@H]1OC(C)=O | 886 nM | 226 nM | 0.113 µM (≈ 58.9 ng/mL) | –
CCOc1ccc(/C=C/C(=O)C[C@@H]2O[C@H](COC(C)=O)[C@@H](OC(C)=O)[C@H](OC(C)=O)[C@H]2OC(C)=O)cc1 | 76.8 nM | 51.4 nM | 0.0279 µM (≈ 14.5 ng/mL) | –
COc1ccccc1/C=C/C(=O)C[C@@H]1O[C@H](COC(C)=O)[C@@H](OC(C)=O)[C@H](OC(C)=O)[C@H]1OC(C)=O | 256 nM | 68.9 nM | 0.0351 µM (≈ 17.8 ng/mL) | –
CC(=O)OC[C@H]1O[C@@H](CC(=O)/C=C/c2cc(Cl)cc(Cl)c2)[C@H](OC(C)=O)[C@@H](OC(C)=O)[C@@H]1OC(C)=O | 15.8 nM | 7.52 nM | 0.00532 µM (≈ 2.9 ng/mL) | Activity (Wuchereria bancrofti): 73.1%; Activity (Setaria cervi [5]): Active; Activity (Setaria cervi [6]): Active; RatioLC50 (Setaria cervi [7]): 5.4; CC50 at 24 h [3]: 32.9 nM; Activity (Setaria cervi [8]): Active; Activity (Setaria cervi [9]): inactive; Ratio CC50/IC50 [4]: 4.94; Activity (Setaria cervi [10]): Active; IC50 [11]: 9.33 nM; MIC [11]: 0.00476 µM (≈ 2.6 ng/mL); inhibition [11]: Dose-dependent effect
CC(=O)OC[C@H]1O[C@@H](CC(=O)/C=C/c2ccc(C(F)(F)F)cc2)[C@H](OC(C)=O)[C@@H](OC(C)=O)[C@@H]1OC(C)=O | 24.6 nM | 6.89 nM | 0.0034 µM (≈ 1.85 ng/mL) | Activity (Wuchereria bancrofti): 40.6%; Activity (Setaria cervi [5]): Active; Activity (Setaria cervi [6]): Active; RatioLC50 (Setaria cervi [7]): 3.5; CC50 at 24 h [3]: 102 nM; Activity (Setaria cervi [8]): Active; Activity (Setaria cervi [9]): Active; Ratio CC50/IC50 [4]: 14.87; Activity (Setaria cervi [10]): Active; IC50 [11]: 8.96 nM; MIC [11]: 0.0044 µM (≈ 2.4 ng/mL); inhibition [11]: Dose-dependent effect
COc1ccc(/C=C/C(=O)C[C@@H]2O[C@H](COC(C)=O)[C@@H](OC(C)=O)[C@H](OC(C)=O)[C@H]2OC(C)=O)cc1OCc1ccccc1 | > 900 nM | 250 nM | 0.123 µM (≈ 75.2 ng/mL) | –
CC(=O)OC[C@H]1O[C@@H](CC(=O)/C=C/c2ccco2)[C@H](OC(C)=O)[C@@H](OC(C)=O)[C@@H]1OC(C)=O | 163 nM | 46.6 nM | 0.0153 µM (≈ 7.12 ng/mL) | –
